pIC50: −log10 of the molar value.
Tests used:
Plasmodium falciparum [1] = experiment: Antiplasmodial activity against chloroquine-sensitive/sulfadoxine-resistant Plasmodium falciparum 3D7 by [3H]-hypoxanthine incorporation assay; format: functional
[2] = Selectivity index, ratio of CC50 for human HepG2A16 cells to IC50 for axenic amastigote form of Leishmania infantum MHOM/MA/67/ITMAP-263; format: toxicity; conditions: read-out: Ratio CC50/IC50
Plasmodium falciparum [3] = experiment: Antiplasmodial activity against chloroquine/cycloguanil-resistant Plasmodium falciparum FCR3 by [3H]-hypoxanthine incorporation assay; format: functional; conditions: FCR-3/Gambia
[4] = Selectivity index, ratio of CC50 for human HepG2A16 cells to IC50 for chloroquine/cycloguanil-resistant Plasmodium falciparum FCR3; format: toxicity; conditions: read-out: Ratio CC50/IC50
[5] = Cytotoxicity against human HepG2A16 cells after 48 hrs by MTT assay; format: cell-based
Leishmania infantum = experiment: Antileishmanial activity against axenic amastigote form of Leishmania infantum MHOM/MA/67/ITMAP-263 assessed as parasite growth inhibition after 72 hrs by MTT assay; format: functional; conditions: MHOM/MA/67/ITMAP-263, 72 h

Row | SMILES | pIC50 (Plasmodium falciparum [1]) | selectivity ratio [2] | pIC50 (Plasmodium falciparum [3]) | selectivity ratio [4] | CC50 at 48 h [5] [µM] | pIC50 (Leishmania infantum)
1 | Cc1c(/C=N/Nc2ccccc2)[n+]([O-])c2ccccc2[n+]1[O-] | < 4.00 | < 0.35 | < 4.00 | < 0.35 | 35.4 | < 4.00
2 | Cc1c(/C=N/Nc2c(Cl)cc(Cl)cc2Cl)[n+]([O-])c2cc(Cl)ccc2[n+]1[O-] | < 4.00 | < 0.12 | 4.21 | 0.2 | 12.2 | < 4.00
3 | Cc1c(/C=N/Nc2ccnc3cc(Cl)ccc23)[n+]([O-])c2cc(Cl)ccc2[n+]1[O-] | 6.62 |  | 5.55 | > 86.1 | > 241 | < 4.00
4 | Cc1c(/C=N/Nc2ccc(Cl)c(Cl)c2)[n+]([O-])c2ccccc2[n+]1[O-] | 4.12 | < 5.5 | 4.06 | 6.32 | 551 | < 4.00
5 | Cc1c(/C=N/Nc2ccc(C(=O)O)cc2)[n+]([O-])c2ccccc2[n+]1[O-] | < 4.00 | < 3.72 | < 4.00 | < 3.72 | 373 | < 4.00
6 | C[C@@H]1[C@H](O)[C@@H](C)/C=C/C=C/C=C/C=C/C=C/C=C/C=C/[C@H](O[C@@H]2O[C@H](C)[C@@H](O)[C@H](N)[C@@H]2O)C[C@@H]2O[C@](O)(C[C@@H](O)C[C@@H](O)[C@H](O)CC[C@@H](O)C[C@@H](O)CC(=O)O[C@H]1C)C[C@H](O)[C@H]2C(=O)O [AMPHOTERICIN B] |  |  |  |  |  | 7.30
7 | CC(=O)N/N=C/c1c(C)[n+]([O-])c2ccccc2[n+]1[O-] | < 4.00 | < 0.87 | < 4.00 | < 0.87 | 87.2 | < 4.00
8 | Cc1c(/C=N/NC(=O)c2ccc(Cl)cc2)[n+]([O-])c2ccccc2[n+]1[O-] | 4.26 | 0.54 | 4.46 | 0.81 | 28.3 | 4.28
9 | Cc1c(C)[n+]([O-])c2ccccc2[n+]1[O-] | < 4.00 | < 3.21 | < 4.00 | < 3.21 | 322 | < 4.00
10 | Cc1c(C(F)(F)F)[n+]([O-])c2ccccc2[n+]1[O-] | 5.10 | 0.05 | 5.38 | 0.42 | 1.8 | 4.52
11 | COc1ccc2c(c1)[n+]([O-])c(C)c(C)[n+]2[O-] | < 4.00 | < 7.44 | < 4.00 | < 7.44 | 744 | < 4.00
12 | Cc1c(/C=N/Nc2c(Cl)cc(Cl)cc2Cl)[n+]([O-])c2ccccc2[n+]1[O-] | < 4.00 | < 1.24 | < 4.00 | < 1.24 | 124 | < 4.00
13 | Cc1ccc(S(=O)(=O)N/N=C/c2c(C)[n+]([O-])c3ccccc3[n+]2[O-])cc1 | 4.07 | 4.51 | < 4.00 | < 2.41 | 241 | 4.27
14 | COc1ccc(C(=O)N/N=C/c2c(C)[n+]([O-])c3ccccc3[n+]2[O-])cc1 | 4.56 | < 0.66 | 4.52 | 2.22 | 66.6 | < 4.00
15 | Cc1c(/C=N/NC(=O)c2ccccc2)[n+]([O-])c2ccccc2[n+]1[O-] | 4.25 | 0.68 | 4.44 | 1.11 | 40.7 | 4.23
16 | Cc1c(/C=N/Nc2cccc(Cl)c2)[n+]([O-])c2ccccc2[n+]1[O-] | < 4.00 | < 0.47 | < 4.00 | < 0.47 | 47.3 | < 4.00
17 | COc1ccc2c(c1)[n+]([O-])c(/C=N/Nc1c(Cl)cc(Cl)cc1Cl)c(C)[n+]2[O-] | < 4.00 | < 2.08 | < 4.00 | < 2.09 | 209 | < 4.00
18 | COc1ccc2c(c1)[n+]([O-])c(/C=N/Nc1ccnc3cc(Cl)ccc13)c(C)[n+]2[O-] | 5.85 |  | 5.59 | > 95.3 | > 244 | < 4.00
19 | Cc1c(/C=N/NC(=O)c2ccncc2)[n+]([O-])c2ccccc2[n+]1[O-] | < 4.00 | < 0.9 | < 4.00 | < 0.9 | 90.9 | < 4.00
20 | Cc1c(C)[n+]([O-])c2cc(Cl)ccc2[n+]1[O-] | < 4.00 | < 2.28 | < 4.00 | < 2.28 | 228 | < 4.00
